Reference: patent US20180036433A1, “COMPOUNDS FOR THE DIAGNOSIS OR TREATMENT OF DISORDERS ASSOCIATED WITH PROTEIN OR PEPTIDE OLIGOMERS” (Agency for Science, Technology and Research, priority 2014, published 2018)

Assays:
[1] = molecular target: monomers, oligomers and fibrils of Aβ (synthetic Aβ1-40) (Homo sapiens, UniProt P05067); experiment: Fluorescence response to pre-formed Aβ monomers, oligomers and fibrils; format: binding; conditions: dye 5 μM, Aβ 20 μM
[2] = molecular target: Aβ1-40 on-fibril pathway oligomers (Homo sapiens, UniProt P05067); experiment: Time-dependent Aβ fibril formation monitored by dye fluorescence; format: binding; conditions: dye 5 μM, Aβ 20 μM, 37° C.
Aβ1-40 on-fibril pathway oligomers, sequence (P05067 672-711): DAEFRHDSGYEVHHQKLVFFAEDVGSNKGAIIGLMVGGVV

monomers, oligomers and fibrils of Aβ (synthetic Aβ1-40), sequence (P05067 672-711): as above

Structure (SMILES): Cc1ccc2c(c1)sc(-c1ccc(N(C)C)cc1)[n+]2C.[Cl-] [ThT, Thioflavin T]
- fluorescence response to Aβ monomers, oligomers and fibrils [1]: fluorescence response in the increasing order of freshly prepared Aβ monomers, followed by oligomer and fibrils
- fluorescence over the time course of Aβ fibril formation [2]: reached a maximum fluorescence after about 1-day and plateaus
